Measurements taken from PMC4363860 (Scientific Reports, 2015).
Like-named read-outs stand apart in the source and are kept apart here. Where a SMILES comes first, the peptide text is derived from it. [ ]: non-standard residue; d: D form. The star is where a group is joined. Lauroyl = CCCCCCCCCCCC(=O)*; 12Ado = NCCCCCCCCCCCC(=O)O

Assays:
[1] = tested on: Human blood (red cells, 1% hematocrit); conditions: 3 h incubation in PBS 37°C; published data; cited from earlier work
Source text: Table 1 Structure-activity study highlighting biophysical attributes of N-terminal OAK derivatives | column: LC50 ^d (μM)

[2] = tested on: panel of GNB: E. coli 35218, 14182, 16327, 16329, 14384, S. Typhimurium 14028, S. stanley 7308, K. pneumoniae 1287, KPC2; test: MIC and chemo-sensitization, one result for the whole panel of GNB (Suppl. Table S1)
[3] = tested on: E. coli; test: MIC and reciprocal sensitization (Fig. 2a,b; Suppl. Figs S2, S3); format: cell-based, Escherichia coli
[4] = tested on: Klebsiella; test: MIC (Suppl. Figs S2, S3); format: cell-based
[5] = one value for all nine listed strains
[6] = one value for all nine listed strains, OAK 1.25 µg/ml
[7] = one value for all nine listed strains, OAK 2.5 µg/ml
[8] = one value for all nine listed strains, OAK 5 µg/ml

## CCCCCCCCCCCC(=O)N[C@@H](CCCCN)C(=O)N[C@@H](CCCCN)C(=O)NCCCCCCCCCCCC(=O)N[C@@H](CCCCN)C(N)=O [C12X] (Lauroyl-KK[12Ado]K-NH2)
[1]
  LC50, OAK concentration that induced 50% hemolysis: 29 ± 9 µM

## CC1(C)S[C@@H]2[C@H](NC(=O)Cc3ccccc3)C(=O)N2[C@H]1C(=O)O [Penicillin G, penicillin G]
[2]; [5]
  SF, sensitization factor, penicillin G with C10KKc12K: 1
  SF, sensitization factor, penicillin G with C12(ω7)KKc12K: 1
[2]; [6]
  MIC of penicillin G in presence of C10KKc12K: > 512 µg/mL
  MIC of penicillin G in presence of C12(ω7)KKc12K: > 512 µg/mL
[2]; [7]
  MIC of penicillin G in presence of C10KKc12K: > 512 µg/mL
  MIC of penicillin G in presence of C12(ω7)KKc12K: > 512 µg/mL
[2]; [8]
  MIC of penicillin G in presence of C10KKc12K: > 512 µg/mL
  MIC of penicillin G in presence of C12(ω7)KKc12K: > 512 µg/mL
[2]; read-out: MIC of penicillin G in presence of C10KKc12K
  MIC: > 512 µg/mL
[2]; read-out: MIC of penicillin G in presence of C12(ω7)KKc12K
  MIC: > 512 µg/mL

## NCCCC[C@H](NC(=O)CCCCCCCCCCCNC(=O)[C@H](CCCCN)NC(=O)[C@@H](N)CCCCN)C(N)=O [X, lysyl-lysyl-aminododecanoyl-lysyl-amide] (H-KK[12Ado]K-NH2)
[1]
  LC50, OAK concentration that induced 50% hemolysis: >100 µM

## CC[C@H]1OC(=O)[C@H](C)[C@@H](O[C@H]2C[C@@](C)(OC)[C@@H](O)[C@H](C)O2)[C@H](C)[C@@H](O[C@@H]2O[C@H](C)C[C@H](N(C)C)[C@H]2O)[C@](C)(O)C[C@@H](C)C(=O)[C@H](C)[C@@H](O)[C@]1(C)O [erythromycin]
[3]
  standalone antibiotic MIC: 512 µg/mL
[4]
  standalone antibiotic MIC: 512 µg/mL
